Experiment [1] can be described thus: Phage binding to Oregon Green 514 carrier beads, plaque assay of bound phage. Conditions: for Kd: phage clone, Oregon Green 514 carrier beads. Here is the method: (§1) These mutations may be important for increasing the overall affinity of the peptide fluorette-fluorophore interaction. We tested one of each of the phage from the secondary screens for increases in avidity (Table 3). PEG-purified TR401 phage, TRS311 phage or the amplified Ph.D.-12 phage display peptide library phage as a negative control (input 1.5×10^8-1.1×10^10 pfu with 2 to 5-fold increments) were incubated with 23.5 μl of BSA-blocked and washed Texas Red carrier beads in binding buffer (see above) in total volume 40 μl for 3 hr. Beads suspensions were centrifuged, the supernatants (unbound phage) were titrated and dissociation constants were measured via a standard linear Scatchard plot. For TR401 and TRS311 phage bound/unbound ratios were quite reliable (6.3-13.1 in the range of phage concentrations shown above). All binding experiments were performed in duplicate and titrations were performed in triplicate. […] For higher Kd, bound/unbound ratios became unreliable (=1).
(§2) Other PEG-purified phage (input 5×10^8-2.5×10^10 pfu with 2 to 5-fold increments) were bound to the respective fluorophore dye carriers essentially in the same manner as described above for Texas Red-specific phage. RhR401 and RhRS308, OG403 and OGS316, OG402 and FluS303 phage, were bound to the Rhodamine Red, Oregon Green 514 or Fluorescein carriers, respectively. Following binding the beads were quickly washed twice by 0.25 ml of TBS+0.1% Tween-20 and suspended in 10 ml TBS. 10 μl of suspension was mixed with ^−2×10^8 log-phase ER2537 cells and incubated 1 hr at 4° C. with slight shaking to allow phage adsorption. Several ten-fold dilutions of infected cells were mixed with noninfected ER2537 cells and plated in standard plaque assay (Sambrook et al., supra). All binding experiments and titrations were accomplished in duplicate. […] For all above phage pfu/particle ratio was in the range 0.4-0.5.

The nature of experiment [2]: Binding affinity of phage clones carrying SKVILFE-flanked fluorettes. Conditions: phage clone, SKVILFE-flanked fluorette.
A short description of experiment [3]: Binding affinity of synthetic constrained peptides to Texas Red. The settings on record: for Kd: synthetic SKVILFE-flanked peptide; for fold more avid than linear TR401 and TRS311 peptides: synthetic constrained vs linear peptides.
Experiment [4] in a line: Phage direct binding to Texas Red carrier beads, Scatchard plot. The settings on record: phage clone (5 pIII-fluorette copies, avidity), 3 hr. Here is the method:
as §1

Experiment [5] is described as follows: Peptide-Texas Red binding in solution, excitation and emission spectra. Conditions: for changes in peak excitation or emission: concentrated peptide with 50 nM Texas Red. As to the method: FIGS. 5A and 5B. Peptide—Texas Red binding. Excitation and emission spectra. Peptides at the noted concentrations were incubated with Texas Red (50 nM), or without, in 0.6 ml of TBS for 1 hr at room temperature (RT). Samples were scanned on a spectrofluorimeter (SPEX Fluoromax (Jobin Yvon-SPEX Instruments Co.)). Excitation and excitation/emission peak shifts for PepTR401(10 μM)/Texas Red and PepTRS311 (10 μM)/Texas Red complexes, respectively (A), were reproducible in three independent experiments. The results of a single experiment are presented.
The above test only checks for bound dye that remains fluorescent at the wavelengths tested. Binding of fluorophore dyes to specific peptides might result in changes in the fluorescence spectra of bound dye versus the spectra of free dye. Or, one might observe an increase or quenching of fluorescence. We mixed concentrated peptide with 50 nM of the corresponding dye in solution and determined the excitation and emission spectra of the resulting mixture.
We attempted with these findings to obtain an affinity measurement for the higher affinity TRS311 peptide. Peptides in different concentrations (1.3-20 μM) were incubated with Texas Red (50 nM) in 0.6 ml of TBS buffer for 1 hr at RT. Excitation and emission spectra of samples were obtained by using spectrofluorimeter SPEX Fluoromax (Jobin Yvon-SPEX Instruments Co.) and DataMax software package. Peak positions were automatically calculated by software. List mode data was saved for other analyses.

Experiment [6] in a line: Dye binding to peptide-coated cobalt Sepharose beads, fluorescence microscopy. The settings on record: Oregon Green 514.
Experiment in experiment [7]: as above
Conditions: 0.5 μM Texas Red in TBS, 1 hr, RT. Here is the method:
FIG. 6. Texas Red-specific peptide PepTR401 (Panel A), PepTRS311 (Panel B), PepTR406 (Panel C) and nonspecific PepControl (Panel D) (see peptide sequences in Table 4) were bound via His6 tag to cobalt ion-containing Sepharose beads. The peptide coated beats were washed and incubated with 0.5 micromolar Texas Red in TBS for 1 hour at room temperature followed by several washings of beads in order to remove unbound dye. Fluorescent and nonflourescent control beads were photographed on fluorescent microscope Axiophot (Zeiss) using Rhodamine Red/Texas Red filter with the same time exposure for every sample. All binding experiments were accomplished in three parallels and results of a single experiments are shown.
Peptides were bound to cobalt ion-coated Sepharose beads and the resultant peptide-coated beads were incubated with corresponding fluorophore dyes, washed, and visualized for dye binding. The same amounts of Texas Red-specific peptides PepTR401, PepTRS311, PepTR406 as well as nonspecific peptide PepControl (see Table 4) were bound via His6 tag to the TALON Metal Affinity Resin (Clontech) in TBS buffer essentially as described by manufacturer's protocol. Beads (5 μl) were washed twice with 0.5 ml TBS to remove unbound peptide and incubated with 0.5 μM Texas Red in 40 μl of TBS buffer for 1 hr at RT. Finally, the beads were washed three times with 0.3 ml TBS to remove unbound dye. Fluorescent and nonfluorescent control beads were photographed with 10-fold magnification on fluorescent microscope Axiophot (Zeiss) using Rhodamine Red/Texas Red filter with 5″ exposure.

Experiment in experiment [8]: as above
Conditions: Fluorescein.

Experiment [9] can be described thus: Phage binding to Fluorescein carrier beads, plaque assay of bound phage. The settings on record: for Kd: phage clone, Fluorescein carrier beads. Here is the method:
as §1, §2

A short description of experiment [10]: Phage binding to Rhodamine Red carrier beads, plaque assay of bound phage. Conditions: for Kd: phage clone, Rhodamine Red carrier beads. As to the method:
as §1, §2

Experiment [11] can be described thus: Phage-free fluorophore dye binding in solution (PEG precipitation, filter scan). The settings on record: vs unselected library phage. The source says:
FIG. 3. Phage-fluorophore dye binding. Fluorophore dye-specific OG403, OG402, RhR401 and TR401 phage were bound to Oregon Green 514, Fluorescein, Rhodamine Red and Texas Red “free” dyes, respectively (see text). The normalized particle amounts of amplified Ph.D.-12 phage display peptide library (nonspecific phage) were bound in solution with the same dyes as controls. Phage-fluorophore dye complexes were precipitated three times by PEG to remove unbound dye and spotted to a nitrocellulose filter. The filter was scanned on the Storm 840 scanner (Molecular Dynamics). The presented data is from a single scan and image enhancements were done simultaneously on the complete set of dye binding results using NIH Image 1.59 software. Specific/nonspecific signal ratios were quantified by densitometry of spot images using NIH Image 1.59 software (see Materials and Methods for details). All binding experiments shown were completed in duplicate. Densitometry was carried out prior to contrast enhancement. Brightness and contrast values were modified to 50 and 65, respectively in Adobe Photoshop. Individual elements of the figure were arranged as a composite from the same original scan from which the binding ratios were determined.
Four activated derivatives of fluorophore dyes (see above) were quenched in 0.5M Tris-HCl, pH 8.7 and used as “free” dyes. Ten μl of PEG-purified and 300-fold concentrated phage TR401, RhR401, OG402, OG403 (1.3-1.8×10^12 phage particles; calculated from optical densities of the purified phage at 260 and 280 nm) in TBS+0.05% sodium azide buffer were separately mixed with an equal volume of 20 μM solution of the corresponding free dyes in the same buffer; mixtures were adjusted by Tween-20 to 0.1% and incubated for 3 hr. Phage-fluorophore dye complexes were precipitated three times by PEG-8000 in order to remove unbound dye and dissolved in 6.6 μl of TBS+0.05% sodium azide buffer. Finally, phage-fluorophore dye complexes (1 μl of each) were spotted to nitrocellulose filter and filter was scanned on the Storm 840 scanner (Molecular Dynamics) in Blue Fluorescence/Chemifluorescence mode with 200 μ pixel resolution. To determine nonspecific binding the normalized amounts of phage particles of amplified, unselected, and PEG-purified Ph.D.-12 phage display peptide library were separately incubated with the corresponding free dyes and treated in the same conditions. All binding experiments were accomplished in duplicate. Specific/nonspecific signal ratios were quantified by densitometry of spot images using “Measure” option of NIH Image 1.59 freeware package.

Experiment [12] in a line: Cross-binding of Texas Red-selected phage to the inappropriate dye carrier. The settings on record: TR-4 phage on Rhodamine Red carrier, vs nonspecific phage background. From the text:
(§3) We tested the binding specificity and excluded the possibility that the TR401 and RhR401 phage were selected against the polymer linker moiety rather than a fluorophore dye moiety of the dye carriers. The TR-4 and RhR-4 phage were cross-bound to Rhbdamine Red and Texas Red carriers, respectively. […] Thus the TR401 and RhR401 fluorettes are specific by this comparison for their respective conjugated dyes, despite the similarity of the compound core ring structures. Second, they had affinity for the corresponding conjugated fluorophore dyes rather than only a polymer linker moiety of Texas Red and Rhodamine Red carriers or other chemical features of the carriers themselves.

A short description of experiment [13]: Cross-binding of Rhodamine Red-selected phage to the inappropriate dye carrier. The settings on record: RhR-4 phage on Texas Red carrier, vs nonspecific phage background.
From the text: as §3

Setting [14] is: 10 μM peptide, 50 nM Texas Red, TBS, 1 hr RT.

The values below come from patent US6747135B1, “Fluorescent dye binding peptides” (The Board of Trustees for the Leland Stanford Junior …, priority 1998, dated 2004).

“Also recorded” adds a separate entry of the source.

As for HEWEYYWDWTAW [OGS316], in [1] (mutant fluorette phage vs parental OG403 phage), the “Affinity increase (fold)” value is 2.7 fold. Further, the Kd in [1] turned out to be 2.4 nM.

RTIWEPKEASNHT [TRP501]: the Kd in experiment [2] turned out to be 0.08 nM.

For “synthetic SKVILFE-flanked Texas Red-specific peptide with His6 tag (SEQ ID NO:121) (GGGSKVILFEGPAGRWTWEPISEGAPGSKVILFEGGPGHHHHHH) [TRP512 peptide]”, in experiment [3], the Kd was around 10 nM; the “fold more avid than linear TR401 and TRS311 peptides” value is listed as “≈ 160 fold”.

As to KPVQYWTQMFYT [TRS311], in experiment [4], the Kd is 0.09 nM.

As for “ASGSGASGSAGSGGGSAETVGGGHHHHHH [control peptide, reference compound]”, the “changes in peak excitation or emission” value in experiment [5] is given as “No detectable changes”.

In the case of SQTWSFPEH [TRP526], in [2], the Kd is above 5 nM.

In the case of GTLSATRPYGRQW [TRP541], the Kd in experiment [2] is above 5 nM.

With “KPVOYWTOMFYTGGGSAETVGGGHHHHHH (KPVQYWTQMFYTGGGSAETVGGGHHHHHH; fluorette) [PepTRS311]”, the results for the “dye binding to peptide-coated beads” value in experiment [6], in experiment [7] and in [8] were “bound to neither Oregon Green 514 nor Fluorescein”, “significant binding” and “bound to neither Oregon Green 514 nor Fluorescein”, respectively. In addition, in [5] (setting [14]), the peak emission shift turned out to be 1.4 nm. Further, in experiment [5] (setting [14]), the peak excitation shift result is on record as “~+2.8 nm”. Also, in [5] (calculated roughly from peak shifts, peptide 1.3-20 μM, Texas Red 50 nM, read-out: affinity of the peptide for the fluorophore), the Kd is 100 to 500 nM. Also, the “change in peak excitation position on reducing peptide concentration” value in experiment [5] (peptide from 10 μM to 1.3 μM, Texas Red 50 nM) is reported as “reduced slightly, but not completely”.

YPNEFDWWDYYY [FluS303]: the “Affinity increase (fold)” value in experiment [9] (mutant fluorette phage vs parental OG402 phage) is listed as 6.5 fold. This substance yielded a Kd in [9] of 2.7 nM.

Turning to “synthetic SKVILFE-flanked Texas Red-specific peptide with His6 tag (SEQ ID NO:120) (GGGSKVILFEGPAGRTIWEPKEASNHTGAPGSKVILFEGGPGHHHHHH) [TRP501 peptide]”, in experiment [3], the Kd was around 200 nM; the “fold more avid than linear TR401 and TRS311 peptides” value is listed as “≈ 8 fold”.

In [2], WSKMGHTVT [TRP505] had a Kd above 5 nM.

Take IPHRPMYWTPVF [RhRS308]: the “Affinity increase (fold)” value in [10] (mutant fluorette phage vs parental RhR401 phage) is on record as “not even marginally improved; also recorded: no increase”. In [10], the Kd came to 21.5 nM.

Consider RWTWEPISE [TRP512], for which the Kd in [2] was 0.025 nM.

For HGWDYYWDWTAW [OG403], the Kd in experiment [1] was found to be 6.4 nM. The “phage binding of free fluorophore dye in solution” value in experiment [11] (free Oregon Green 514, 3 hr) is given as “specifically bound”.

“DFLOWKLAROKPGGGSAETVGGGHHHHHH (DFLQWKLARQKPGGGSAETVGGGHHHHHH; fluorette) [PepTR406]”: the “dye binding to peptide-coated beads” value in experiment [7] is on record as “did not bind”. The “changes in peak excitation or emission” value in [5] is “No detectable changes”.

Substance KHVQYWTQMFYS [TR401] showed a Kd in experiment [4] of 0.27 nM. Further, the “binding specificity, cross-binding to inappropriate dye carrier” value in [12] was “specific”. The “phage binding of free fluorophore dye in solution” value in [11] (free Texas Red, 3 hr) is recorded as “specifically bound”.

IPHPPMYWTRVF [RhR401]: the “binding specificity, cross-binding to inappropriate dye carrier” value in [13] is “specific”. The Kd in experiment [10] worked out at 23 nM. In experiment [11] (free Rhodamine Red, 3 hr), the “phage binding of free fluorophore dye in solution” value was “specifically bound”.

For YPNDFEWWEYYF [OG402], the “phage binding of free fluorophore dye in solution” value in experiment [11] (free Fluorescein, 3 hr) was “specifically bound”. This substance also gave a Kd in experiment [9] of 17.4 nM.

In [2], GNQKCLQHNRCST [TRP518] returned a Kd above 5 nM.

For EPMARPWERKQDR [TRP527], the Kd in [2] is above 5 nM.
